In US7696357B2, “Stable hydrate of a muscarinic receptor antagonist” (Novartis International Pharmaceutical Ltd., priority 2002, dated 2010):

Test: storage stability / shelf life of the solid form
Assay type: physicochemical
Conditions: storage over time

stability on storage (in words) (hydrate)	stability on storage (in words) (listed as solid hydrate, hydrate)	SMILES	stability on storage (in words)
stable over long periods	remain stable for well over a year	NC(=O)C(c1ccccc1)(c1ccccc1)[C@@H]1CCN(CCc2ccc3c(c2)CCO3)C1 [darifenacin hydrate, (S)-2-{1-[2-(2,3-dihydrobenzofuran-5-yl)ethyl]-3-pyrrolidinyl}-2,2-diphenylacetamide hydrate]	–
–	–	NC(=O)C(c1ccccc1)(c1ccccc1)[C@@H]1CCN(CCc2ccc3c(c2)CCO3)C1 [free base, (S)-2-{1-[2-(2,3-dihydrobenzofuran-5-yl)ethyl]-3-pyrrolidinyl}-2,2-diphenylacetamide, reference compound]	very unstable
–	–	NC(=O)C(c1ccccc1)(c1ccccc1)[C@@H]1CCN(CCc2ccc3c(c2)CCO3)C1 [toluene solvate, (S)-2-{1-[2-(2,3-dihydrobenzofuran-5-yl)ethyl]-3-pyrrolidinyl}-2,2-diphenylacetamide toluene solvate]	not stable over medium to long term storage periods
